The values that follow come from PMC4072668, “Mass Spectrometric Detection and Characterization of Atypical Membrane-Bound Zinc-Sensitive Phosphatases Modulating GABAA Receptors” (PLoS ONE, 2014).

Like-named read-outs stand apart in the source and are kept apart here. Non-standard residues stand in square brackets, D forms with d. No end group written: not given here. pT = C[C@@H](OP(=O)(O)O)[C@H](N)C(=O)O; pS = N[C@@H](COP(=O)(O)O)C(=O)O Where only a bound is given, the exact number is not on record here.

Assay [1] deals with membrane-bound phosphatase activities of washed cortical membrane. The assay is described as follows: LC-MS/MS phosphatase assay with effectors, N-terminal phosphopeptide pI2α1N-P as substrate. It is filed as biochemical. Particulars: substrate pI2α1N-P; for IC50: 1 mM Mg2+, 30°C, 10 min, read-out: IC50. The procedure: (§1) Phosphatasic activity of bovine, rat and human washed cortical membranes was measured by using synthetic phosphopeptides as substrates. Reactions were performed in presence of 50 µg/ml (total proteins) of washed cortical membrane, 10 mM Hepes-Tris pH 7.4 and 1 mM MgCl2. Enzymatic reactions were initiated by adding 10 µM of phosphopeptide incubated for 10 min at 30°C and stopped by adding ice-cold acetic acid at a final concentration of 10% (w/v). Following a 800 g centrifugation during 10 min at 4°C, the supernatants were analyzed by LC-MS/MS. […] For these reasons, and to avoid micro-capillary column obstruction we have preferentially used the micro-LC column to characterize the pharmacological profile of phosphatasic activities.
(§2) Quantification of appearance of the native peptide and disappearance of the phosphopeptide in different conditions was performed using the calibration curve plotted using the Xcalibur software (P/N 64018-XCALI version 1.3). The calibration curve and linear regression were constructed using a series of standards, native and phosphorylated equimolar mixture, N- or C-terminal peptides at different concentrations 0.5, 1, 2, 5 and 10 µM (n = 2) in 10 mM Hepes pH 7.4, 1 mM Mg^2+ and 10% acetic acid, which was the same milieu condition as in the phosphatase assay after stopping reactions. The linear regression represents peak area of MS/MS chromatogram spectra depending on the peptide concentration (Figure S1).
(§3) Different effectors were tested by addition to the incubation medium at variable concentration: the dicationic ions Mg^2+, Ca^2+, Zn^2+ were used as chloride, the polycation spermine as hydrochloride, the anion F^− as sodium fluoride (NaF), and the inhibitors of some known phosphatases okadaic acid and the two (+/−) enantiomers of p–bromotetramisole oxalate (p-Br-t). For the inhibitory effects, relative 50% inhibition concentration (IC50) values were either determined graphically with a log-scale for the concentration axis or by the ‘log (inhibitor) vs. response’ nonlinear fit of Prism 5 software (GraphPad), considering activity in the absence of inhibitor as 100%.
Figure 4 Effects of various inhibitors on the membrane-bound phosphatase activities. […] Incubations were performed at 30°C during 10 min. The activities are expressed as a percentage of that of control samples without inhibitors. Inhibition profiles of PPase activities by okadaic acid were performed using N-terminal phosphopeptide (A) or C-terminal phosphopeptide (B) as substrate. The data points are means ± SEM of 3 experiments. The red arrows indicate the different IC50. […] Data points are the average ± SEM of duplicate assays. (D) Effect of Ca^2+ ions, fluoride (F^−) and spermine (SPM^4+) on PPase activity using N-terminal phosphopeptide as substrate.

Assay [2] concerns alkaline phosphatase. Also noted: method as in PMID 10898722. The conditions noted are these: cited from earlier work.
The subject of assay [3] is membrane-bound phosphatase activities of rat washed cortical membrane. The assay is described as follows: LC-MS/MS phosphatase assay, Zn2+ profile, N-terminal phosphopeptide pI2α1N-P as substrate. Particulars: for IC50: substrate pI2α1N-P 10 µM, 1 mM Mg2+, 30°C, 10 min, two-step fit. Format: biochemical. As for the experimental part:
as §1, §2, §3
Assays were performed in presence of rat washed cortical membrane at 50 µg/ml of total protein concentration, with increasing amounts of Zn^2+ ions in 10 mM Hepes buffer pH 7.4 with 1 mM Mg^2+ in presence of. Incubations were performed at 30°C during 10 min. The activities are expressed as a percentage of that of control samples. […] (H) PPase activity at very low Zn^2+ concentrations (1 pM–200 nM). The IC50 values are mentioned with their 95% confidence intervals and calculated from nonlinear regression curve fits using GraphPad Prism 5.

Assay [4] has the same test system. Put plainly: LC-MS/MS phosphatase assay, Zn2+ profile, C-terminal phosphopeptide pI2α1C-P as substrate. It is filed as biochemical. The conditions noted are these: for IC50: substrate pI2α1C-P 10 µM, 1 mM Mg2+, 30°C, 10 min, two-step fit. The procedure:
as §1, §2
Different effectors were tested by addition to the incubation medium at variable concentration: the dicationic ions Mg^2+, Ca^2+, Zn^2+ were used as chloride, the polycation spermine as hydrochloride, the anion F^− as sodium fluoride (NaF), and the inhibitors of some known phosphatases okadaic acid and the two (+/−) enantiomers of p–bromotetramisole oxalate (p-Br-t). […]
Assays were performed in presence of rat washed cortical membrane at 50 µg/ml of total protein concentration, with increasing amounts of Zn^2+ ions in 10 mM Hepes buffer pH 7.4 with 1 mM Mg^2+ in presence of. […] The activities are expressed as a percentage of that of control samples. […]

Assay [5] relates to membrane-bound phosphatase dephosphorylating GABAAR. Also noted: method as in PMID 10762086. Particulars: cited from earlier work.
Assay [6] deals with GABAA receptor currents in pyramidal neurons. Also noted: method as in PMID 15342727. The conditions noted are these: cited from earlier work.
The subject of assay [7] is membrane-bound phosphatase activities of washed cortical membranes. The assay is described as follows: Enzyme kinetics of membrane-bound phosphatase activities with phosphopeptide substrates. The conditions noted are these: for Km / Vmax: phosphopeptide as substrate, 50 µg/ml membrane proteins, 30°C, 10 min, Michaelis-Menten fit. It is filed as biochemical. As for the experimental part:
Phosphatasic activity of bovine, rat and human washed cortical membranes was measured by using synthetic phosphopeptides as substrates. Reactions were performed in presence of 50 µg/ml (total proteins) of washed cortical membrane, 10 mM Hepes-Tris pH 7.4 and 1 mM MgCl2. Enzymatic reactions were initiated by adding 10 µM of phosphopeptide incubated for 10 min at 30°C and stopped by adding ice-cold acetic acid at a final concentration of 10% (w/v). Following a 800 g centrifugation during 10 min at 4°C, the supernatants were analyzed by LC-MS/MS. This centrifugation step was critical to remove membrane suspension that interferes with nano-LC and MS analysis. For these reasons, and to avoid micro-capillary column obstruction we have preferentially used the micro-LC column to characterize the pharmacological profile of phosphatasic activities.
The best conditions of incubation time and total protein concentration of washed cortical membranes were determined for assaying phosphatase activity with 10 µM of pI2α1 phosphopeptide. Protein concentration varied from 1 to 300 µg/ml and incubation time from 0.25 to 30 min, at fixed temperature of 30°C as in previous studies. Initial velocity of the enzymatic reaction was determined by linear regression (slope value). The optimal conditions were obtained with 50 µg/ml total membrane protein concentration and 10 min incubation time. The effects of the substrate effects were measured by varying the pI2α1N-P and pI2α1C-P concentrations between 3 and 75 µM. Saturation plots were generated via non-linear fit to the Michaelis-Menten equation. The affinity constant (Km) and maximum velocity (Vmax) were evaluated from this curve fitting using the Prism 5 computer program (GraphPad). Double-reciprocal plots with the Lineweaver-Burk equation were also drawn by linear fits using the same software.
Figure 2 LC-MS/MS detection and kinetics analysis of GABAAR α1-subunit phosphatase activities. (A) Dose-dependency at various protein concentrations; (B) time course of phosphatase activities using 50 µg/ml of total proteins of washed cortical membranes from bovine brain and (C) from human epileptic tissue. The N-terminal phosphopeptide (pI2α1N-P) used as substrate at 10 µM was incubated during 10 min at 30°C in 10 mM Hepes (pH 7.4) in the presence of 1 mM Mg^2+. The enzymatic reactions were stopped with 10% acetic acid and the samples were analyzed by LC-MS/MS as in figure 1E, F. The dephosphorylation rate was quantified by measuring simultaneously the quantity of the produced native peptide (pI2α1N) and of the remaining phosphorylated substrate (pI2α1N-P). Error bars represent SEM of two experiments. Kinetic analysis of GABAAR α1-subunit phosphatase activities was investigated using N-terminal (pI2α1N-P) and C-terminal (pI2α1C-P) phosphopeptides. All experiments were carried out with 50 µg/ml membrane proteins concentration, incubated at 30°C during 10 min, in presence of different concentrations of substrates. (D) Saturation plot of the initial velocity Vi versus [pI2α1N-P] and Lineweaver-Burk plots of 1/V versus 1/[pI2α1N-P] […] (E) Saturation plot of Vi versus [pI2α1C-P] and Lineweaver-Burk plot of 1/V versus 1/[pI2α1C-P] (inset). The data points are means ± SEM of 3 experiments.

[8] abbreviates: read-out: IC50 (H), high affinity.
Where [9] appears, read: read-out: IC50 (L), low affinity.

For orientation: IC50 means the concentration that gives 50% inhibition. By Km is commonly meant the concentration of substrate that gives half-maximal velocity.

For `Brc1ccc(C2CN3CCSC3=N2)cc1.O=C(O)C(=O)O` (single isomer, unassigned; (+)) [(+)-p--Br--t, (+)-p-bromotetramisole oxalate], in assay [1] (1 mM), the “inhibition of membrane phosphatase activities” value is listed as “completely inhibited”. The IC50 in assay [1] was determined as 100 µM. Besides, in assay [2], the “inhibition of alkaline phosphatase” value is listed as “completely insensitive”.
Regarding `Brc1ccc(C2CN3CCSC3=N2)cc1.O=C(O)C(=O)O` (single isomer, unassigned; (-)) [(−)-p--Br--t, (−)-p-bromotetramisole oxalate], the “inhibition of membrane phosphatase activities” value in assay [1] (1 mM) is on record as “completely inhibited”. Further, the IC50 in assay [1] was 300 µM. The “inhibition of alkaline phosphatase” value in assay [2] is “potent alkaline phosphatase inhibitor”.
For the molecule `[Ca+2].[Cl-].[Cl-]` [Ca^2+, CaCl2], the “inhibition of phosphatase activities” value in assay [1] (1 mM) is 30%; in assay [1] (10 mM), “less than 60%”. For the same molecule, the IC50 in assay [1] was approximately 5000 µM.
For `[Cl-].[Cl-].[Mg+2]` [Mg^2+, MgCl2], the “effect of increasing concentration on phosphatase activities” value in assay [1] (1 µM to 1 mM, data not shown) is on record as “moderate but not linear increase”.
Regarding `NCCCNCCCCNCCCN` [Spermine, spermine], the entries for the “inhibition of phosphatase activities” value in assay [1] (1 mM) and in assay [1] (10 mM) were 10% and 20%, respectively. In addition, in assay [1], the IC50 was more than 10000 µM.
In the case of `[Cl-].[Cl-].[Zn+2]` [Zn^2+, Zinc chloride], the “effect on phosphatasic activities at low concentrations” value in assay [3] (1 pM–200 nM Zn2+, substrate pI2α1N-P) is on record as “several activations”. Also, the “inhibition of phosphatase activities” value in assay [3] (1 mM Zn2+, substrate pI2α1N-P) is “completely inhibited”; in assay [4] (1 mM Zn2+, substrate pI2α1C-P) it was “completely inhibited”. For the same molecule, the IC50 was determined as 1.7 µM in assay [3] (setting [8]), 48 µM in assay [3] (setting [9]), 0.6 µM in assay [4] (setting [8]) and 15 µM in assay [4] (setting [9]). Also, the “inhibition of membrane-bound phosphatase activity” value in assay [5] (concentrations between 0.1 µM-1 mM) was “inhibited”. The “inhibition of GABAAR dephosphorylation” value in assay [5] (washed brain membranes, autoradiographic method) is recorded as “complete inhibition”.
`[F-].[Na+]` [fluoride (F^−), sodium fluoride]: the “inhibition of phosphatase activities” value is recorded as 45% in assay [1] (1 mM) and approximately 90% in assay [1] (10 mM). The IC50 in assay [1] (listed as Sodium fluoride) was less than 2000 µM; in assay [1], approximately 2000 µM.
With `[Na+].[Na+].[Na+].[O]=[V]([O-])([O-])[O-]` [sodium orthovanadate], in assay [5], the “inhibition of membrane phosphatases” value is reported as “inhibits”. The “effect on rundown of GABAA currents” value in assay [6] is reported as “reduced rundown”.
Regarding EPKKTFNSV[pS]KIDR [pI2α1C-P], in assay [7], the “reduction in catalytic efficiency (Vmax/Km) compared to the phosphothreonine peptide PI2α1N-P” value was “eightfold reduction”, the Km worked out at 116 ± 20 µM and the Vmax is 1290±150 pM.min^−1.ml^−1.
For the molecule NYF[pT]KRGYAWDGK [pI2α1N-P], in assay [7], the Km came to 25.4 ± 3.3 µM and the Vmax stood at 2320±130 pM.min^−1.ml^−1.
